{"source": "patent US10246469B2", "about": "“Biaryl kinase inhibitors” (BRISTOL-MYERS SQUIBB COMPANY, priority 2015, dated 2019)", "molecular_target": "T1, GST-Xa-hAAK1 (Homo sapiens, UniProt Q2M2I8)", "T1 construct": "GST (N); Factor Xa cleavage site (Xa) (internal); made in house", "T1 sequence (Q2M2I8 whole entry)": "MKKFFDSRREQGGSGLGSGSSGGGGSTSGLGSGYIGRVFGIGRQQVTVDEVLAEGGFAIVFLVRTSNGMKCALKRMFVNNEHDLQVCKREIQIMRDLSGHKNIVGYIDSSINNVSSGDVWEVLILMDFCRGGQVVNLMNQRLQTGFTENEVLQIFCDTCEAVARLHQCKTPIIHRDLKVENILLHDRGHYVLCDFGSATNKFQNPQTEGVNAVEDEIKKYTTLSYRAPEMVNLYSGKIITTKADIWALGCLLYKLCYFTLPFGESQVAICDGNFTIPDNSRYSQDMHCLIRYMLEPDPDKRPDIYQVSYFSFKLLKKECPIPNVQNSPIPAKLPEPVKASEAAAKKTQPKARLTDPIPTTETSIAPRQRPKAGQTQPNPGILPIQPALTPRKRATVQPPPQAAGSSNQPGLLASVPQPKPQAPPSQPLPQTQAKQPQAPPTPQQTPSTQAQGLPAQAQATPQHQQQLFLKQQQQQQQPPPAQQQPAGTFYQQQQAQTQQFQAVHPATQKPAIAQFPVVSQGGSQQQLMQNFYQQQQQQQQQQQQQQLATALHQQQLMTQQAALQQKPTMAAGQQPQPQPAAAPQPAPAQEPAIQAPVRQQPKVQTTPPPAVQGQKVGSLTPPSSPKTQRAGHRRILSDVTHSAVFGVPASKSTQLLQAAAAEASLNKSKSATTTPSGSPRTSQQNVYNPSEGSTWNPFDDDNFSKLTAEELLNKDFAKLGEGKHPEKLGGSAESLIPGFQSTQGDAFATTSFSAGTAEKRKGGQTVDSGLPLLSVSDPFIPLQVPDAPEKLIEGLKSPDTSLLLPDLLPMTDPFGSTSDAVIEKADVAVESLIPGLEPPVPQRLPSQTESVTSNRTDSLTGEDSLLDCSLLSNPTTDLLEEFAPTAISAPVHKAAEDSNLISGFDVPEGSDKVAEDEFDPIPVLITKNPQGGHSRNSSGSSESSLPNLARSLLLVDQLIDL", "assay": "AAK1 Kinase Assay", "assay_type": "biochemical", "details": "bacterially expressed GST-Xa-hAAK1 3.5 nM; ATP 22 μM; fluoresceinated peptide 1.5 μM; 3 hours at room temperature; Caliper LabChip 3000", "method": "The assays were performed in U-bottom 384-well plates. The final assay volume was 30 μl prepared from 15 μl additions of enzyme and substrates (fluoresceinated peptide (5-FAM)-Aha-[…]-NH2 and ATP) and test compounds in assay buffer (10 mM Tris-HCL pH 7.4, 10 mM MgCl2, 0.01% Tween-20 and 1.0 mM DTT). The reactions were initiated by the combination of bacterially expressed, GST-Xa-hAAK1 with substrates and test compounds. The reactions were incubated at room temperature for 3 hours and terminated by adding 60 μl of 35 mM EDTA buffer to each sample. The reactions were analyzed on the Caliper LabChip 3000 (Caliper, Hopkinton, Mass.) by electrophoretic separation of the fluorescent substrate and phosphorylated product. […] The final concentration of reagents in the assays are ATP, 22 μM; (5-FAM)-Aha-[…]-NH2, 1.5 μM; GST-Xa-hAAK1, 3.5 nM; and DMSO, 1.6%. […] Compounds were dissolved at 10 mM in dimethylsulfoxide (DMSO) and evaluated at eleven concentrations. IC50 values were derived by non-linear regression analysis.", "data": [{"molecule": "CC(C)C[C@](C)(N)COc1ccc(-c2ccnc(NC3CCCOC3)c2)cc1Cl", "note": "(mixture of isomers) [Example 338, 4-(4-(((S)-2-amino-2,4-dimethylpentyl)oxy)-3-chlorophenyl)-N-(tetrahydro-2H-pyran-3-yl)pyridin-2-amine]", "values": [{"measurement": "IC50", "result": 35, "unit": "nM"}]}, {"molecule": "CC(C)C[C@](C)(N)COc1ccc(-c2ccnc(NC3CCCOC3)c2)cc1C(F)(F)F", "note": "(mixture of isomers) [Example 475, 4-(4-((S)-2-amino-2,4-dimethylpentyloxy)-3-(trifluoromethyl)phenyl)-N-(tetrahydro-2H-pyran-3-yl)pyridin-2-amine]", "values": [{"measurement": "IC50", "result": 15, "unit": "nM"}]}, {"molecule": "CC(C)C[C@](C)(N)COc1ccc(-c2ccnc(NC3CCCOC3)c2)cc1Cl", "note": "(single isomer, unassigned) [Example 339]", "values": [{"measurement": "IC50", "result": 17, "unit": "nM"}]}, {"molecule": "CC(C)C[C@](C)(N)COc1ccc(-c2ccnc(NC3CCCOC3)c2)cc1Cl", "note": "(single isomer, unassigned) [Example 340]", "values": [{"measurement": "IC50", "result": 110, "unit": "nM"}]}, {"molecule": "CC(C)C[C@](C)(N)COc1ccc(-c2ccnc(NC3CCCOC3)c2)cc1C(F)(F)F", "note": "(single isomer, unassigned) [Example 476]", "values": [{"measurement": "IC50", "result": 125, "unit": "nM"}]}, {"molecule": "CC(C)C[C@](C)(N)COc1ccc(-c2ccnc(NC3CCCOC3)c2)cc1C(F)(F)F", "note": "(single isomer, unassigned) [Example 477]", "values": [{"measurement": "IC50", "result": 50, "unit": "nM"}]}, {"molecule": "Cc1n[nH]c(C)c1-c1ccc(OC[C@@](C)(N)CC(C)C)c(F)c1", "note": "[Example 251, (S)-1-(4-(3,5-dimethyl-1H-pyrazol-4-yl)-2-fluorophenoxy)-2,4-dimethylpentan-2-amine]", "values": [{"measurement": "IC50", "result": 310, "unit": "nM"}]}, {"molecule": "Cc1nc2nccc(-c3ccc(OC[C@@](C)(N)CC(C)C)c(C#N)c3)c2nc1C", "note": "[Example 252, (S)-2-((2-amino-2,4-dimethylpentyl)oxy)-5-(2,3-dimethylpyrido[2,3-b]pyrazin-8-yl)benzonitrile]", "values": [{"measurement": "IC50", "result": 285, "unit": "nM"}]}, {"molecule": "CC(C)C[C@](C)(N)COc1ccc(-c2ccnc3nccnc23)cc1F", "note": "[Example 253, (S)-1-(2-fluoro-4-(pyrido[2,3-b]pyrazin-8-yl)phenoxy)-2,4-dimethylpentan-2-amine]", "values": [{"measurement": "IC50", "result": 537, "unit": "nM"}]}, {"molecule": "CC(C)C[C@](C)(N)COc1ccc(-c2ccnc3[nH]c(N)nc23)cc1C#N", "note": "[Example 254, (S)-2-((2-amino-2,4-dimethylpentyl)oxy)-5-(2-amino-3H-imidazo[4,5-b]pyridin-7-yl)benzonitrile]", "values": [{"measurement": "IC50", "result": 22, "unit": "nM"}]}, {"molecule": "CC(C)C[C@](C)(N)COc1ccc(-c2ccnc3[nH]c(N)nc23)cc1C(F)(F)F", "note": "[Example 255, (S)-7-(4-((2-amino-2,4-dimethylpentyl)oxy)-3-(trifluoromethyl)phenyl)-3H-imidazo [4,5-b]pyridin-2-amine]", "values": [{"measurement": "IC50", "result": 42, "unit": "nM"}]}, {"molecule": "CC(C)C[C@](C)(N)COc1ccc(-c2ccnc(Nc3nccs3)c2)cc1C(F)(F)F", "note": "[Example 256, (S)—N-(4-(4-((2-amino-2,4-dimethylpentyl)oxy)-3-(trifluoromethyl)phenyl)pyridin-2-yl)thiazol-2-amine]", "values": [{"measurement": "IC50", "result": 0.82, "unit": "nM"}]}, {"molecule": "CC(C)C[C@](C)(N)COc1ccc(-c2ccnc(Nc3nccs3)c2)cc1Cl", "note": "[Example 257, (S)—N-(4-(4-((2-amino-2,4-dimethylpentyl)oxy)-3-chlorophenyl)pyridin-2-yl)thiazol-2-amine]", "values": [{"measurement": "IC50", "result": 0.45, "unit": "nM"}]}, {"molecule": "CC(C)C[C@](C)(N)COc1ccc(-c2ccnc(NC(=O)c3nccs3)c2)cc1C(F)(F)F", "note": "[Example 258, (S)—N-(4-(4-((2-amino-2,4-dimethylpentyl)oxy)-3-(trifluoromethyl)phenyl)pyridin-2-yl)thiazole-2-carboxamide]", "values": [{"measurement": "IC50", "result": 0.47, "unit": "nM"}]}, {"molecule": "Cc1cc(-c2ccnc3[nH]c(N)nc23)ccc1OC[C@@](C)(N)CC(C)C", "note": "[Example 259, (S)-7-(4-((2-amino-2,4-dimethylpentyl)oxy)-3-methylphenyl)-3H-imidazo[4,5-b]pyridin-2-amine]", "values": [{"measurement": "IC50", "result": 229, "unit": "nM"}]}, {"molecule": "CC(C)C[C@](C)(N)COc1ccc(-c2ccnc(NC(=O)c3nccs3)c2)cc1Cl", "note": "[Example 260, (S)—N-(4-(4-((2-amino-2,4-dimethylpentyl)oxy)-3-chlorophenyl)pyridin-2-yl)thiazole-2-carboxamide]", "values": [{"measurement": "IC50", "result": 0.48, "unit": "nM"}]}, {"molecule": "CC(C)C[C@](C)(N)COc1ccc(-c2ccnc(NC(=O)c3nccs3)c2)cc1C#N", "note": "[Example 261, (S)—N-(4-(4-((2-amino-2,4-dimethylpentyl)oxy)-3-cyanophenyl)pyridin-2-yl)thiazole-2-carboxamide]", "values": [{"measurement": "IC50", "result": 0.36, "unit": "nM"}]}, {"molecule": "Cc1csc(Nc2cc(-c3ccc(OC[C@@](C)(N)CC(C)C)c(Cl)c3)ccn2)n1", "note": "[Example 262, (S)—N-(4-(4-((2-amino-2,4-dimethylpentyl)oxy)-3-chlorophenyl)pyridin-2-yl)-4-methylthiazol-2-amine]", "values": [{"measurement": "IC50", "result": 1.9, "unit": "nM"}]}, {"molecule": "Cc1cc(-c2ccnc3ccnn23)cnc1OC[C@](C)(N)CC(C)C", "note": "[Example 264, (R)-2,4-dimethyl-1-((3-methyl-5-(pyrazolo[1,5-a]pyrimidin-7-yl)pyridin-2-yl)oxy)pentan-2-amine]", "values": [{"measurement": "IC50", "result": 79, "unit": "nM"}]}, {"molecule": "CC(C)C[C@@](C)(N)COc1ncc(-c2ccnc3ccnn23)cc1Cl", "note": "[Example 265, (R)-1-((3-chloro-5-(pyrazolo[1,5-a]pyrimidin-7-yl)pyridin-2-yl)oxy)-2,4-dimethylpentan-2-amine]", "values": [{"measurement": "IC50", "result": 55, "unit": "nM"}]}, {"molecule": "Cc1cc(-c2ccnc3cc(C4CC4)nn23)cnc1OC[C@](C)(N)CC(C)C", "note": "[Example 266, (R)-1-((5-(2-cyclopropylpyrazolo[1,5-a]pyrimidin-7-yl)-3-methylpyridin-2-yl)oxy)-2,4-dimethylpentan-2-amine]", "values": [{"measurement": "IC50", "result": 265, "unit": "nM"}]}, {"molecule": "Cc1cc(-c2ccc(OC[C@@](C)(N)CC(C)C)c3ncsc23)ccn1", "note": "[Example 267, (S)-2,4-dimethyl-1-((7-(2-methylpyridin-4-yl)benzo[d]thiazol-4-yl)oxy)pentan-2-amine]", "values": [{"measurement": "IC50", "result": 362, "unit": "nM"}]}, {"molecule": "COC(=O)Nc1cc(-c2ccc(OC[C@@](C)(N)CC(C)C)c3ncsc23)ccn1", "note": "[Example 269, (S)-methyl (4-(4-((2-amino-2,4-dimethylpentyl)oxy)benzo[d]thiazol-7-yl)pyridin-2-yl)carbamate]", "values": [{"measurement": "IC50", "result": 3.4, "unit": "nM"}]}, {"molecule": "Cc1nc2c(-c3ccc(OC[C@@](C)(N)CC(C)C)c(C(F)(F)F)c3)ncnc2s1", "note": "[Example 270, (S)-2,4-dimethyl-1-(4-(2-methylthiazolo[5,4-d]pyrimidin-7-yl)-2-(trifluoromethyl)phenoxy)pentan-2-amine]", "values": [{"measurement": "IC50", "result": 8.4, "unit": "nM"}]}, {"molecule": "Cc1nc2c(-c3ccc(OC[C@@](C)(N)CC(C)C)c(C#N)c3)ncnc2s1", "note": "[Example 271, (S)-2-((2-amino-2,4-dimethylpentyl)oxy)-5-(2-methylthiazolo[5,4-d]pyrimidin-7-yl)benzonitrile]", "values": [{"measurement": "IC50", "result": 4.1, "unit": "nM"}]}, {"molecule": "CC(C)C[C@](C)(N)COc1ncc(-c2ccnc3ccnn23)cc1Cl", "note": "[Example 272, (S)-1-((3-chloro-5-(pyrazolo[1,5-a]pyrimidin-7-yl)pyridin-2-yl)oxy)-2,4-dimethylpentan-2-amine]", "values": [{"measurement": "IC50", "result": 0.8, "unit": "nM"}]}, {"molecule": "Cc1cc(-c2ccnc3ccnn23)cnc1OC[C@@](C)(N)CC(C)C", "note": "[Example 275, (S)-2,4-dimethyl-1-((3-methyl-5-(pyrazolo[1,5-a]pyrimidin-7-yl)pyridin-2-yl)oxy)pentan-2-amine]", "values": [{"measurement": "IC50", "result": 2.2, "unit": "nM"}]}, {"molecule": "CC(C)C[C@](C)(N)COc1ccc(-c2ccnc3ccnn23)nc1CF", "note": "[Example 276, (S)-1-((2-(fluoromethyl)-6-(pyrazolo[1,5-a]pyrimidin-7-yl)pyridin-3-yl)oxy)-2,4-dimethylpentan-2-amine]", "values": [{"measurement": "IC50", "result": 0.9, "unit": "nM"}]}, {"molecule": "CC(C)CC(N)(CO)COc1cnc(-c2ccnc(C(F)F)c2)cc1C(F)F", "note": "(stereo not drawn) [Example 277, 2-amino-2-(((2′,4-bis(difluoromethyl)-[2,4′-bipyridin]-5-yl)oxy)methyl)-4-methylpentan-1-ol]", "values": [{"measurement": "IC50", "result": 1.8, "unit": "nM"}]}, {"molecule": "CC(C)C[C@](C)(N)COc1ccc(-c2ccnn3ccnc23)cc1", "note": "[Example 281, (S)-1-(4-(imidazo[1,2-b]pyridazin-8-yl)phenoxy)-2,4-dimethylpentan-2-amine]", "values": [{"measurement": "IC50", "result": 3.4, "unit": "nM"}]}, {"molecule": "Cc1nc2c(-c3ccc(OC[C@@](C)(N)CC(C)C)c(Cl)c3)ccnc2[nH]1", "note": "[Example 282, (S)-1-(2-chloro-4-(2-methyl-3H-imidazo[4,5-b]pyridin-7-yl)phenoxy)-2,4-dimethylpentan-2-amine]", "values": [{"measurement": "IC50", "result": 36, "unit": "nM"}]}, {"molecule": "CC(C)C[C@](C)(N)COc1ccc(-c2ccnn3ccnc23)cc1C(F)(F)F", "note": "[Example 283, (S)-1-(4-(imidazo[1,2-b]pyridazin-8-yl)-2-(trifluoromethyl)phenoxy)-2,4-dimethylpentan-2-amine]", "values": [{"measurement": "IC50", "result": 0.4, "unit": "nM"}]}, {"molecule": "CC(C)C[C@](C)(N)COc1ccc(-c2ccnc3[nH]ncc23)cc1Cl", "note": "[Example 284, (S)-1-(2-chloro-4-(1H-pyrazolo[3,4-b]pyridin-4-yl)phenoxy)-2,4-dimethylpentan-2-amine]", "values": [{"measurement": "IC50", "result": 0.6, "unit": "nM"}]}, {"molecule": "CC(C)C[C@](C)(N)COc1ccc(-c2cc(Cl)nn3ccnc23)cc1C#N", "note": "[Example 286, (S)-2-((2-amino-2,4-dimethylpentyl)oxy)-5-(6-chloroimidazo[1,2-b]pyridazin-8-yl)benzonitrile]", "values": [{"measurement": "IC50", "result": 47, "unit": "nM"}]}, {"molecule": "CC(C)C[C@](C)(N)COc1ccc(-c2ccnn3ccnc23)cc1C#N", "note": "[Example 287, (S)-2-((2-amino-2,4-dimethylpentyl)oxy)-5-(imidazo[1,2-b]pyridazin-8-yl)benzonitrile]", "values": [{"measurement": "IC50", "result": 0.5, "unit": "nM"}]}, {"molecule": "CC(C)C[C@](C)(N)COc1ccc(-c2ccnc3[nH]ncc23)cc1F", "note": "[Example 288, (S)-1-(2-fluoro-4-(1H-pyrazolo[3,4-b]pyridin-4-yl)phenoxy)-2,4-dimethylpentan-2-amine]", "values": [{"measurement": "IC50", "result": 0.9, "unit": "nM"}]}]}
